Source: patent publication US20240132525A1, “BORON […], CO[…], METHODS AND USES THEREOF” (priority 2022, published 2024)
Read-outs that look alike come from different tables or passages of the source.

What was measured:
JAK2 = JAK2 (Homo sapiens (Human), UniProt O60674); assay: Biochemical kinase assay (33P-ATP filter-binding), JAK2; conditions: read-out: IC50 JAK2
From the text: (§1) Biochemical Kinase Assay Protocol (JAK)
(§2) Reaction Procedure: • 1. […] Detected kinase activity by filter-binding method.

[1] = Dog LM (liver microsome) assay; type: in vitro ADME; conditions: predicted clearance as percent of liver blood flow
Procedure: Dog LM (Liver Microsome) Assay
The metabolic degradation of the test compound is assayed at 37° C. with pooled liver microsomes from dogs (Beagle). The final incubation volume of 100 μl per time point contains TRIS buffer pH 7.6 at RT (0.1 M), magnesium chloride (5 mM), microsomal protein (1 mg/ml) and the test compound at a final concentration of 1 μM. Following a short preincubation period at 37° C., the reactions were initiated by addition of beta-nicotinamide adenine dinucleotide phosphate, reduced form (NADPH, 1 mM) and terminated by transferring an aliquot into solvent after different time points. Additionally, the NADPH-independent degradation was monitored in incubations without NADPH, terminated at the last time point. The [%] remaining test compound after NADPH independent incubation is reflected by the parameter c (control) (metabolic stability). The quenched incubations are pelleted by centrifugation (10000 g, 5 min). An aliquot of the supernatant is assayed by LC-MS/MS for the amount of parent compound. The half-life (t½ INVITRO) is determined by the slope of the semilogarithmic plot of the concentration-time profile. The intrinsic clearance (CL_[…]) is calculated by considering the amount of protein in the incubation: CL_[…] [μl/min/mg protein]=(Ln 2/(half-life [min]*protein content [mg/ml]))*1000. For better across species comparison the predicted clearance is expressed as percent of the liver blood flow [% QH] in the individual species. In general, high stability (corresponding to low % QH) of the compounds across species is desired.

GM-CSF/pSTAT5 = assay: Cytokine function assay GM-CSF/pSTAT5 in lysed whole blood cells; type: cell-based; conditions: read-out: IC50 GM-CSF
Procedure: (§3) Cytokine Function Assay Protocols for IL-4/pSTAT6 and GM-CSF/pSTAT5
GM-CSF/pSTAT5: • Whole blood from a healthy donor was lysed to remove red blood cells. Cells were plated onto a 96 well plate. Compound was added and incubated for 1 hour (at 37° C.). After 1 hour, cells were stimulated with GM-CSF for 15 minutes. Cells were fixed and stained with anti-pSTAT5 antibody. After staining, cells were read on a Beckman-Coulter CytoFLEX.

IL-4/pSTAT6 = assay: Cytokine function assay IL-4/pSTAT6 in PBMC; type: cell-based
Procedure: as §3
IL-4/pSTAT6: • PBMC from a healthy donor was plated onto a 96 w plate. Compound was added and incubated for 1 hour (at 37° C.). After 1 hour, cells were stimulated with IL-4 for 15 minutes. Cells were fixed and stained with anti-pSTAT6 antibody. After staining, cells were read on a Beckman-Coulter CytoFLEX.

JAK1 = JAK1 (Homo sapiens (Human), UniProt P23458); assay: Biochemical kinase assay (33P-ATP filter-binding), JAK1; conditions: read-out: IC50 JAK1
Sequence of JAK1 (P23458 whole entry, species assumed): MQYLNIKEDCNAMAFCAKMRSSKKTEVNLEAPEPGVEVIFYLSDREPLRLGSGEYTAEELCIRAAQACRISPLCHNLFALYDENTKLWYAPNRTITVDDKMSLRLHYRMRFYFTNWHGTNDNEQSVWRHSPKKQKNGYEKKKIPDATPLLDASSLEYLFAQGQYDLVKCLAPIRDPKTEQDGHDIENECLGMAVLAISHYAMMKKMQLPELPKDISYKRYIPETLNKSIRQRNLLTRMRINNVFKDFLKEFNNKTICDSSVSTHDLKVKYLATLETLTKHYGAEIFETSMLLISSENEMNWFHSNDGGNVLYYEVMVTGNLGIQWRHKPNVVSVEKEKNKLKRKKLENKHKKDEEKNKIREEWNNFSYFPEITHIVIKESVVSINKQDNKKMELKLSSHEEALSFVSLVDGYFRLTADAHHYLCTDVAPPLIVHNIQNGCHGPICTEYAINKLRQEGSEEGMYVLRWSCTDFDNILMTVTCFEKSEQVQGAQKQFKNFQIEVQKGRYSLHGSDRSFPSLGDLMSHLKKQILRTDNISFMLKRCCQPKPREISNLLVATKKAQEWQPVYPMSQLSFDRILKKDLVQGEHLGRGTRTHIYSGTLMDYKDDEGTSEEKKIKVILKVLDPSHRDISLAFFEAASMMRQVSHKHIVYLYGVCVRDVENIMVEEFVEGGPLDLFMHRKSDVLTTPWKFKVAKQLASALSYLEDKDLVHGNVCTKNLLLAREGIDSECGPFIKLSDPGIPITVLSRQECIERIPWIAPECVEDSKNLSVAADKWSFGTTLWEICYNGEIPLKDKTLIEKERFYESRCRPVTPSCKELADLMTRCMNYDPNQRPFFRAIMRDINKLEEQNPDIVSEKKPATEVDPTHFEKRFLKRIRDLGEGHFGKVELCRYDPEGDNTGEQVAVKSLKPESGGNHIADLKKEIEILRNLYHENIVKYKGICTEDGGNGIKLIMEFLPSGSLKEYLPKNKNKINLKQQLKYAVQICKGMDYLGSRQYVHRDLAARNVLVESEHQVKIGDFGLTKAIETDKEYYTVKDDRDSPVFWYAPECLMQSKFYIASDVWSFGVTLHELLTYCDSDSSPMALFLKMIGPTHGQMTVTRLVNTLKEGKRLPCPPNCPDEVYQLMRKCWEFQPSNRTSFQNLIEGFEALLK
From the text: as §1, §2

IL-31 = assay: Cytokine function assay for IL-31 in DH82 cells; type: cell-based, canine; conditions: Canis lupus familiaris, DH82; Table 3a; read-out: IC50 IL-31
Procedure: Cytokine Function Assay Protocol for IL-31
The protocol for the cytokine function assay for IL-31 is set forth below: • 1. […] After 24 hr, wash with 37° C. pre-warmed PBS (100 uL/well). • 3. Add serum-free MEM, 90 uL per well, 2 hr, 37° C. • 4. Add 10 uL 10×IL-31 (40, 10, 2.5 ug/mL) in duplicate, 5 min, 37° C. • 5. Remove medium, add 60 uL lysis buffer per well. Agitate on a plate shaker (˜350 rpm) for 10 min at RT. • 6. […] Add 6 uL Acceptor Mix, cover with aluminum foil, quickly spin at 1000 rpm, shake at 120 rpm for 2 min, then incubate at RT for 1 hr. • 8. Add 6 uL Donor Mix, cover with aluminum foil, quickly spin at 1000 rpm, shake at 120 rpm for 2 min, then incubate at RT for 1 hr. • 9. Measure the fluorescence using EnVision™ plate reader.

PDE4B = PDE4B (Homo sapiens (Human), UniProt Q07343); assay: PDE4B inhibition; type: biochemical; conditions: Table 3b, comparator compounds
Sequence of PDE4B (Q07343 whole entry, species assumed): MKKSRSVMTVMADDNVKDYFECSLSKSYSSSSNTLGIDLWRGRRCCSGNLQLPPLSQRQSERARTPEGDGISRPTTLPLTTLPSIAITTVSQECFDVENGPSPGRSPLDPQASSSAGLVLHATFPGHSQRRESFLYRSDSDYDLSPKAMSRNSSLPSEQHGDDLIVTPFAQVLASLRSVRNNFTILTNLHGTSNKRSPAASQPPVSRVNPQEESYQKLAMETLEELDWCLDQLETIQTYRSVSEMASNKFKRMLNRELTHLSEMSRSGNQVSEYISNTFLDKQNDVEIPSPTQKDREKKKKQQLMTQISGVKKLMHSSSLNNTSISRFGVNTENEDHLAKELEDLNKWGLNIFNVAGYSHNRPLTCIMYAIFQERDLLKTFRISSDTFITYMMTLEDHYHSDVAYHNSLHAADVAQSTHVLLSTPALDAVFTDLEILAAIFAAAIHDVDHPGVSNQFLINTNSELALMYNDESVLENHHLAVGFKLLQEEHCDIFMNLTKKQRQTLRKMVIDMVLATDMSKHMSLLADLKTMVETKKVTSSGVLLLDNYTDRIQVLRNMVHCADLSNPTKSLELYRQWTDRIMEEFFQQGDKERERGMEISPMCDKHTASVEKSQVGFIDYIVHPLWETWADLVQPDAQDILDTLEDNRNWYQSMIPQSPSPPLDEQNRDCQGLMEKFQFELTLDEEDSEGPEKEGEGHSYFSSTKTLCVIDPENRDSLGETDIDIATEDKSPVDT

[2] = Table 3a, 1 μM, 1 mg/ml microsomal protein
[3] = PBMC, read-out: IC50 IL-4, Table 3a
[4] = Table 3b, comparator compounds, read-out: IC50 IL-4

Sequence of JAK2 (O60674 whole entry, species assumed): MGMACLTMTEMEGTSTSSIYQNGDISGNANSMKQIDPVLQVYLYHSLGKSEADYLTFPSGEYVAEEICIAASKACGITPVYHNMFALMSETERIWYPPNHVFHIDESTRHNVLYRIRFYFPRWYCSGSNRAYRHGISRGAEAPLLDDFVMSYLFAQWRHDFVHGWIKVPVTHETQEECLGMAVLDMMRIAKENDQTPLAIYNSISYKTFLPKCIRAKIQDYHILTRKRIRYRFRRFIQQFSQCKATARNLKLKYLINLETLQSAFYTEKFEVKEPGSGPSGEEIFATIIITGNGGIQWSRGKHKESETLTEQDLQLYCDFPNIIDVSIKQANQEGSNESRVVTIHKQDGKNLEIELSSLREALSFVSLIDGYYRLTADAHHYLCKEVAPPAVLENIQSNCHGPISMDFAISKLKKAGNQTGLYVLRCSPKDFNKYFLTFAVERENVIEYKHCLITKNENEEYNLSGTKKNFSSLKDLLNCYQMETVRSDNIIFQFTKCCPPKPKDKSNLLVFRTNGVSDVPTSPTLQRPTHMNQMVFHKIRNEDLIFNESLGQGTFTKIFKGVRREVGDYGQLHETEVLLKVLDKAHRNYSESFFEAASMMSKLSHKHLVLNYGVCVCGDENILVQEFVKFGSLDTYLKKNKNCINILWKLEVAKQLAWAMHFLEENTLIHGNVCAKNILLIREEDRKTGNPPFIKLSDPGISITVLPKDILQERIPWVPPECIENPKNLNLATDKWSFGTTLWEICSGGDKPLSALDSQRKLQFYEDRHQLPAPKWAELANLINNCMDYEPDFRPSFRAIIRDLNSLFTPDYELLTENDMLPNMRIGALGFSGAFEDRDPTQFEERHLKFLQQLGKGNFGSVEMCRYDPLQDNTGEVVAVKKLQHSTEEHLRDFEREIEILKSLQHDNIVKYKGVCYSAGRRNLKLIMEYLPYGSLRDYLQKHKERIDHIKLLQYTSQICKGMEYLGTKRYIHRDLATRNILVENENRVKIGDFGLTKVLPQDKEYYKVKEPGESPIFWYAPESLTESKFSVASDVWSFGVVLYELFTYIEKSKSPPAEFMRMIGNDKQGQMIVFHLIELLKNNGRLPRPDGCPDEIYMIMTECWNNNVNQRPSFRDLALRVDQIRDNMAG

Row | SMILES | IC50 (JAK2; Table 3a) | Dog LM QH [1, 2] | IC50 (GM-CSF/pSTAT5; Whole blood cell) | IC50 (IL-4/pSTAT6; [3]) | IC50 (JAK1; Table 3a) | IC50 (IL-31) | IC50 (JAK2; Table 3b, comparator compounds) | Dog LM QH ([1]; Table 3b, comparator compounds) | IC50 (GM-CSF/pSTAT5; Table 3b, comparator compounds) | IC50 (PDE4B) | Inhibition PDE4B @ 1 μM (PDE4B) | IC50 (IL-4/pSTAT6; [4]) | IC50 (JAK1; Table 3b, comparator compounds)
1 | Cc1cnc(Nc2cc(Cl)c3c(c2)COB3O)nc1NC1CCCC1C#N (racemic) [Example 003, (trans)-2-((2-((7-chloro-1-hydroxy-1,3-dihydrobenzo[c][1,2]oxaborol-5-yl)amino)-5-methylpyrimidin-4-yl)amino)cyclopentane-1-carbonitrile] | 40 nM | <19.9% | 1430 nM | 106 nM | 0.7 nM | 21.2 nM |  |  |  |  |  |  | 
2 | Cc1cnc(Nc2cc(Cl)c3c(c2)COB3O)nc1NC1CCCCC1C#N (racemic) [Example 010, (trans)-2-[[2-[(7-chloro-1-hydroxy-1,3dihydrobenzo[c][1,2]oxaboroll-5-yl)amino]-5-methyl-pyrimidin-4-yl]amino]cyclohexane-1-carbonitrile] | 19.3 nM | <19.9% | 1020 nM | 71.7 nM | 0.7 nM | 18.1 nM |  |  |  |  |  |  | 
3 | Cc1cnc(Nc2cc3c(c(C(F)(F)F)c2)B(O)OC3)nc1NC1CCCCC1C#N (racemic) [Example 011, (trans)-2-((2-((1-hydroxy-7-(trifluoromethyl)-1,3-dihydrobenzo[c][1,2]oxaborol-5-yl)amino)-5-methylpyrimidin-4-yl)amino)cyclohexane-1-carbonitrile] | 37.5 nM | <19.9% | 1150 nM | 159 nM | 0.9 nM | 33.6 nM |  |  |  |  |  |  | 
4 | Cc1cnc(Nc2ccc3c(c2)COB3O)nc1NC1COCCC1C#N (racemic) [Example 026, (trans)-3-[[2-[(1-hydroxy-3H-2,1-benzoxaborol-5-yl)amino]-5-methyl-pyrimidin-4-yl]amino]tetrahydropyran-4-carbonitrile] | 7 nM | <19.9% | 2660 nM | 91.9 nM | 0.5 nM | 64.6 nM |  |  |  |  |  |  | 
5 | Cc1cnc(Nc2cc(Cl)c3c(c2)COB3O)nc1NC1COCCC1C#N (racemic) [Example 031, (trans)-3-((2-((7-chloro-1-hydroxy-1,3-dihydrobenzo[c][1,2]oxaborol-5-yl)amino)-5-methylpyrimidin-4-yl)amino)tetrahydro-2H-pyran-4-carbonitrile] | 40.8 nM | <19.9% | 3150 nM | 67.5 nM | 1.2 nM | 27.6 nM |  |  |  |  |  |  | 
6 | Cc1cnc(Nc2ccc3c(c2)COB3O)nc1N[C@@H]1CCCC[C@H]1C#N (relative stereo) [Example 008, (trans)2-[[2-[(1-hydroxy-3H-2,1-benzoxaborol-5-yl)amino]-5-methyl-pyrimidin-4-yl]amino]cyclohexane-1-carbonitrile] | 3.4 nM | <19.9% | 774 nM | 95.9 nM | 0.3 nM | 40.2 nM |  |  |  |  |  |  | 
7 | N#C[C@@H]1CCCC[C@H]1Nc1nc(Nc2ccc3c(c2)COB3O)ncc1Cl (relative stereo) [Example 017, (trans)-2-((5-chloro-2-((1-hydroxy-1,3-dihydrobenzo[c][1,2]oxaborol-5-yl)amino)pyrimidin-4-yl)amino)cyclohexane-1-carbonitrile] | 4.2 nM | <19.9% | 10000 nM | 233 nM | 0.4 nM | 35.4 nM |  |  |  |  |  |  | 
8 | Cc1cnc(Nc2cc(C)c3c(c2)COB3O)nc1N[C@@H]1COCC[C@H]1C#N (relative stereo) [Example 027, (trans)-3-((2-((1-hydroxy-7-methyl-1,3-dihydrobenzo[c][1,2]oxaborol-5-yl)amino)-5-methylpyrimidin-4-yl)amino)tetrahydro-2H-pyran-4-carbonitrile] | 3.5 nM | 30.1% | 1200 nM | 79.9 nM | 0.6 nM | 81.3 nM |  |  |  |  |  |  | 
9 | Cc1cnc(Nc2cc(Cl)c3c(c2)COB3O)nc1N[C@@H]1CCC[C@H]1C#N (single isomer, unassigned) [Example 003a, (trans)-2-((2-((7-chloro-1-hydroxy-1,3-dihydrobenzo[c][1,2]oxaborol-5-yl)amino)-5-methylpyrimidin-4-yl)amino)cyclopentane-1-carbonitrile] | 3.7 nM | <19.9% | 2220 nM | 93.3 nM | 0.7 nM | 9.2 nM |  |  |  |  |  |  | 
10 | CCC(CC)Nc1nc(Nc2ccc3c(c2)COB3O)ncc1C [Example C001] |  |  |  |  |  |  | 60.2 nM | 73.8% | 1720 nM | 92.2 nM | 90% | 115 nM | 1.6 nM
11 | CCC(CC)Nc1nc(Nc2cc(F)c3c(c2)COB3O)ncc1C [Example C003] |  |  |  |  |  |  | 43.7 nM | 41.0% | 1160 nM | 212 nM |  | 125 nM | 0.7 nM
12 | CCC(CC)Nc1nc(Nc2cc(C)c3c(c2)COB3O)ncc1C [Example C004] |  |  |  |  |  |  | 41 nM | 34.5% | > 10000 nM |  | 22% | 118 nM | 1.1 nM
13 | Cc1cnc(Nc2ccc3c(c2)COB3O)nc1NC1CCCC1 [Example C006] |  |  |  |  |  |  | 154 nM | >86.6% | 270 nM | 114 nM | 86% | 293 nM | 6.5 nM
14 | Cc1cnc(Nc2cc(Cl)c3c(c2)COB3O)nc1NC1CCCC1 [Example C007] |  |  |  |  |  |  | 31.8 nM | 52.1% | 3740 nM | 113 nM |  | 300 nM | 0.7 nM
15 | Cc1cnc(Nc2cc(C)c3c(c2)COB3O)nc1NC1CCCC1 [Example C008] |  |  |  |  |  |  | 59.3 nM | 54.3% | > 10000 nM |  | 37% | 973 nM | 2.3 nM
16 | Cc1cnc(Nc2ccc3c(c2)C(C)(C)OB3O)nc1NC1CCCC1 [Example C009] |  |  |  |  |  |  | 83.9 nM | 83.4% | 4220 nM | 761 nM | 40% | 218 nM | 2.4 nM
17 | Cc1cnc(Nc2ccc3c(c2)COB3O)nc1NC1CCCCC1 [Example C011] |  |  |  |  |  |  | 32.9 nM | 83.5% | 7700 nM | 242 nM | 13% | 2490 nM | 3.2 nM
18 | OB1OCc2cc(Nc3ncc(Cl)c(NC4CCCC4)n3)ccc21 [Example C014] |  |  |  |  |  |  | 179 nM | 78.5% | 5350 nM | 52.7 nM |  | 782 nM | 3.3 nM
19 | Cc1cc(Nc2ncc(Cl)c(NC3CCCC3)n2)cc2c1B(O)OC2 [Example C016] |  |  |  |  |  |  | 663 nM | 54.5% | 927 nM |  | 30% | 688 nM | 2.1 nM
